Assay results published in PubChem BioAssay (NCI).
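Five compound concentrations were applied to cells in 96-well plates for 48 hours; endpoints were derived by simple linear interpolation of the resulting dose-response curve. Abbreviation: GI50, concentration required for 50% inhibition of growth. TGI: total growth inhibition.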

Columns and labels:
Experiment in all cases: NCI anticancer screen, dose series, 48 h
[1] = system: 786-0 renal
[2] = system: A498 renal
[3] = system: A549 NSCLC
[4] = system: ACHN renal
[5] = system: BT-549 breast
[6] = system: CCRF-CEM leukemia
[7] = system: COLO 205 colon
[8] = system: DU-145 prostate
[9] = system: EKVX NSCLC
[10] = system: HCC-2998 colon
[11] = system: HCT-116 colon
[12] = system: HCT-15 colon
[13] = system: HL-60(TB) leukemia
[14] = system: HOP-62 NSCLC
[15] = system: HOP-92 NSCLC
[16] = system: HS 578T breast
[17] = system: HT29 colon
[18] = system: IGROV1 ovarian
[19] = system: K-562 leukemia
[20] = system: KM12 colon
[21] = system: LOX IMVI melanoma
[22] = system: M14 melanoma
[23] = system: MALME-3M melanoma
[24] = system: MCF7 breast
[25] = system: MDA-MB-231 breast
[26] = system: MDA-MB-435
[27] = system: MOLT-4 leukemia
[28] = system: NCI-H226 lung
[29] = system: NCI-H23 lung
[30] = system: NCI-H460 lung
[31] = system: NCI-H522 lung
[32] = system: NCI/ADR-RES ovarian
[33] = system: OVCAR-3 ovarian
[34] = system: OVCAR-4 ovarian
[35] = system: OVCAR-5 ovarian
[36] = system: OVCAR-8 ovarian
[37] = system: PC-3 prostate
[38] = system: RPMI-8226 leukemia
[39] = system: RXF 393 renal
[40] = system: SF-268 CNS
[41] = system: SF-295 CNS
[42] = system: SF-539 CNS
[43] = system: SK-MEL-2 melanoma
[44] = system: SK-MEL-28 melanoma
[45] = system: SK-MEL-5 melanoma
[46] = system: SK-OV-3 ovarian
[47] = system: SN12C renal
[48] = system: SNB-19 CNS
[49] = system: SNB-75 CNS
[50] = system: SR leukemia
[51] = system: SW-620 colon
[52] = system: T-47D breast
[53] = system: TK-10 renal
[54] = system: U251 CNS
[55] = system: UACC-257 melanoma
[56] = system: UACC-62 melanoma
[57] = system: UO-31 renal

`O=c1cc(N2CCOCC2)oc2c(-c3ccc4c(c3)OCCO4)csc12` showed a GI50 [1] of 352 nM, a TGI [1] of 6310 nM and a GI50 [2] of 102 nM. It also gave a TGI [2] of 662 nM, a GI50 [3] of 583 nM and a TGI [3] of 10500 nM. It also gave a GI50 [4] of 339 nM, a TGI [4] of 10700 nM and a GI50 [5] of 332 nM. The TGI [5] was 4100 nM, the GI50 [6] was 1490 nM and the TGI [6] was > 61900 nM. For the same compound, the GI50 [7] was 417 nM, the TGI [7] was 2740 nM and the GI50 [8] was 730 nM. For the same compound, the TGI [8] was > 100000 nM, the GI50 [9] was 333 nM and the TGI [9] was 6150 nM. It also gave a GI50 [10] of 746 nM, a TGI [10] of 8790 nM and a GI50 [11] of 775 nM. For the same compound, the TGI [11] was 11100 nM, the GI50 [12] was 471 nM and the TGI [12] was > 40800 nM. The GI50 [13] was 298 nM, the TGI [13] was 2890 nM and the GI50 [14] was 302 nM. For the same compound, the TGI [14] was 5330 nM, the GI50 [15] was 214 nM and the TGI [15] was 2560 nM. The GI50 [16] was 221 nM, the TGI [16] was 1400 nM and the GI50 [17] was 379 nM. For the same compound, the TGI [17] was 12200 nM, the GI50 [18] was 262 nM and the TGI [18] was 1470 nM. The GI50 [19] was 1170 nM, the TGI [19] was > 100000 nM and the GI50 [20] was 1080 nM. The TGI [20] was > 38600 nM, the GI50 [21] was 425 nM and the TGI [21] was 2820 nM. The GI50 [22] was 451 nM, the TGI [22] was 4860 nM and the GI50 [23] was 224 nM. The TGI [23] was 1800 nM, the GI50 [24] was 284 nM and the TGI [24] was 11300 nM. It also gave a GI50 [25] of 382 nM, a TGI [25] of 14500 nM and a GI50 [26] of 428 nM. The TGI [26] was 33600 nM, the GI50 [27] was 628 nM and the TGI [27] was 6240 nM. It also gave a GI50 [28] of 492 nM, a TGI [28] of 11700 nM and a GI50 [29] of 760 nM. For the same compound, the TGI [29] was 17300 nM, the GI50 [30] was 658 nM and the TGI [30] was 14200 nM. The GI50 [31] was 282 nM, the TGI [31] was 4160 nM and the GI50 [32] was 590 nM. It also gave a TGI [32] of 19700 nM, a GI50 [33] of 526 nM and a TGI [33] of 11300 nM. For the same compound, the GI50 [34] was 413 nM, the TGI [34] was > 61900 nM and the GI50 [35] was 445 nM. The TGI [35] was > 62900 nM, the GI50 [36] was 498 nM and the TGI [36] was 12000 nM. The GI50 [37] was 319 nM, the TGI [37] was > 80200 nM and the GI50 [38] was 439 nM. It also gave a TGI [38] of 4660 nM, a GI50 [39] of 405 nM and a TGI [39] of 3480 nM. It also gave a GI50 [40] of 687 nM, a TGI [40] of 21600 nM and a GI50 [41] of 307 nM. For the same compound, the TGI [41] was 3670 nM, the GI50 [42] was 425 nM and the TGI [42] was 3610 nM. It also gave a GI50 [43] of 798 nM, a TGI [43] of 5030 nM and a GI50 [44] of 579 nM. For the same compound, the TGI [44] was 11400 nM, the GI50 [45] was 590 nM and the TGI [45] was 2160 nM. The GI50 [46] was 272 nM, the TGI [46] was 1200 nM and the GI50 [47] was 484 nM. For the same compound, the TGI [47] was > 100000 nM, the GI50 [48] was 1180 nM and the TGI [48] was 42800 nM. The GI50 [49] was 127 nM, the TGI [49] was 765 nM and the GI50 [50] was 519 nM. For the same compound, the TGI [50] was 8570 nM, the GI50 [51] was 978 nM and the TGI [51] was 16300 nM. For the same compound, the GI50 [52] was 167 nM, the TGI [52] was 643 nM and the GI50 [53] was 257 nM. The TGI [53] was 1290 nM, the GI50 [54] was 1080 nM and the TGI [54] was 35000 nM. For the same compound, the GI50 [55] was 608 nM, the TGI [55] was 7950 nM and the GI50 [56] was 325 nM. It also gave a TGI [56] of 2060 nM, a GI50 [57] of 167 nM and a TGI [57] of 1790 nM.
